Read-outs that look alike come from different tables or passages of the source.
Assays:
[1] = In vitro cytotoxicity with L-6 cells (resazurin); format: cell-based, rat; details: rat
Procedure: Serial drug dilutions of 11 3-fold dilution steps covering a range from 100 to 0.002 μg/mL were prepared. After 70 h of incubation, the plates were inspected under an inverted microscope to assure the growth of the controls and sterile conditions. […] The plates were read with a Spectramax Gemini XS microplate fluorometer (Molecular Devices Cooperation, Sunnyvale, CA, USA) using an excitation wavelength of 536 nm and an emission wavelength of 588 nm. The IC50 values were calculated by linear regression from the sigmoidal dose inhibition curves using SoftmaxPro software Version 8.2.1 (Molecular Devices Cooperation, Sunnyvale, CA, USA). Podophyllotoxin (Sigma P4405) was used as control.

CYP3A4 = CYP3A4 (Homo sapiens, UniProt P08684); assay: Cytochrome P450 3A4 inhibition assay (P450-Glo, Luciferin-IPA); details: recombinant human CYP3A4 Supersomes (+ oxidoreductase + b5), pH 7.4, probe Luciferin-IPA
Procedure: The CYP3A4 inhibition assay was performed using 96-well white plates (Greiner Bio-One) at a pH of 7.4. […] Stock solutions were further diluted to a final concentration of 20 µM using water (HPLC grade). The luciferin IPA stock solution (3 mM) was diluted to a final concentration of 0.3 mM using water (HPLC grade). The CYP3A4 reaction mixture was prepared by mixing water (HPLC grade) with potassium phosphate buffer (1 M), luciferin IPA (0.3 mM) and CYP3A4 membrane (1 pmol/µL). The control reaction mixture was prepared using water (HPLC grade), potassium phosphate buffer (1 M), luciferin IPA (0.3 mM) and membrane without CYP activity (1 pmol/µL). Solutions A and B of the NADPH regeneration system were mixed and HPLC grade water was added. The reconstituted luciferin detection reagent was prepared by mixing the reconstituted buffer with esterase with the luciferin detection reagent. Then, solutions of test compounds and standard were added to the wells of the 96-well white plate; each was tested in triplicate. The CYP3A4 reaction mixture was added to each well and the plate was incubated for 10 min at room temperature. After that, the NADPH regeneration system was added, inducing the reaction followed by an incubation time of 10 min at ambient temperature. By adding the reconstituted luciferin detection reagent, the reaction was terminated and a luminescent signal was formed. Luminescence was measured by a SpectraMax M3 UV plate reader (Molecular Devices). The relative light units (RLU) were received from a calibration curve with beetle luciferin. […] The CYP3A4 inhibition (%) was calculated from the RLU.

P. falciparum NF54 = assay: In vitro microplate assay against P. falciparum (3H-hypoxanthine incorporation); format: cell-based, Plasmodium falciparum; details: for S.I. = IC50 (Cyt.)/IC50 (P.f.NF54): L-6 cells vs P.f. NF54; for IC50: average of four determinations, read-out: P.f. NF54 IC50
Procedure: In vitro activity against the erythrocytic stages of P. falciparum was determined using a ^3H-hypoxanthine incorporation assay, using the drug sensitive NF54 strain [37]. […] The 96-well plates were incubated in a humidified atmosphere at 37 °C, 4% CO2, 3% O2 and 93% N2. After 48 h, 0.05 mL of ^3H-hypoxanthine (=0.5 µCi) was added to each well of the plate. The plates were incubated for a further 24 h under the same conditions. The plates were then harvested with a Betaplate cell harvester (Wallac, Zurich, Switzerland). The red blood cells were transferred onto a glass fiber filter and washed with distilled water. The dried filters were inserted into a plastic foil with 10 mL of scintillation fluid and counted in a Betaplate liquid scintillation counter (Wallac, Zurich, Switzerland). The IC50 values were calculated from sigmoidal inhibition curves by linear regression using Microsoft Excel. Chloroquine (Sigma C6628) was used as control.

[2] = Plasmodium falciparum, NF54, chloroquine-sensitive strain NF54
[3] = chloroquine-sensitive strain NF54

Chain of CYP3A4 (P08684 2-503 limits assumed): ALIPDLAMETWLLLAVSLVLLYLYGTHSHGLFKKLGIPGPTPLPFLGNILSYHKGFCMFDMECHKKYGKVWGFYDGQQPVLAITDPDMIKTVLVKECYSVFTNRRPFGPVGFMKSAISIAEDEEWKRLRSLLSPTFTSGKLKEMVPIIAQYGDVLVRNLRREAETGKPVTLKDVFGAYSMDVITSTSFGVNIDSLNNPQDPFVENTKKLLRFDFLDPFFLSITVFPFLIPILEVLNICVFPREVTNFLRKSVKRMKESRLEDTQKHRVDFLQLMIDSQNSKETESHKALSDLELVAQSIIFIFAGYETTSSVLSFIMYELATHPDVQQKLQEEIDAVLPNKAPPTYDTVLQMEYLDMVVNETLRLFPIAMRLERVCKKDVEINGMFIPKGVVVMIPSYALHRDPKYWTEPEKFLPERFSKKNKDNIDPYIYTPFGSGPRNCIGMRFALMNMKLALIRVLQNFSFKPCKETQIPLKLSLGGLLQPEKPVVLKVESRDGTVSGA

| SMILES | inhibition at 10 min, 20 µM (CYP3A4) | S.I. = IC50 (Cyt.)/IC50 (P.f.NF54) (P. falciparum NF54) | IC50 (P. falciparum NF54; [2]) | melting point | IC50 (P. falciparum NF54; [3]) | IC50 at 72 h [1] |
| --- | --- | --- | --- | --- | --- | --- |
| O=C(Nc1nonc1-c1cccc([N+](=O)[O-])c1)c1cccc(C(F)(F)F)c1 [Compound 44, N-[4-(3-Nitrophenyl)-1,2,5-oxadiazol-3-yl]-3-(trifluoromethyl)benzamide] | 94% | 0.198 | 8.64 µM |  |  | 1.71 µM |
| O=C(Nc1nonc1-c1ccc(F)cc1)c1cccc(F)c1 [Compound 45, 3-Fluoro-N-[4-(4-fluorophenyl)-1,2,5-oxadiazol-3-yl]benzamide] | 60% | 1.000 | 11.2 µM | 169 °C |  | 11.2 µM |
| O=C(Nc1nonc1-c1ccc(Cl)cc1)c1cccc(F)c1 [Compound 46, N-[4-(4-Chlorophenyl)-1,2,5-oxadiazol-3-yl]-3-fluorobenzamide] |  | 1.155 | 10.1 µM | 180 °C |  | 11.7 µM |
| O=C(Nc1nonc1-c1ccc([N+](=O)[O-])cc1)c1cccc(C(F)(F)F)c1 [Compound 40, N-[4-(4-Nitrophenyl)-1,2,5-oxadiazol-3-yl]-3-(trifluoromethyl)benzamide] | 82% | 0.473 | 1.98 µM | 147 °C |  | 0.936 µM |
| Nc1ccc(-c2nonc2NC(=O)c2ccccc2)cc1 [Compound 55, N-[4-(4-Aminophenyl)-1,2,5-oxadiazol-3-yl]benzamide] |  | 16.62 | 7.42 µM | 169 °C |  | 123 µM |
| COc1ccc(C(=O)Nc2nonc2-c2ccc(N)cc2)cc1Cl [Compound 59, N-[4-(4-Aminophenyl)-1,2,5-oxadiazol-3-yl]-3-chloro-4-methoxybenzamide] |  | 31.54 | 3.14 µM | 250 °C |  | 98.9 µM |
| Nc1cccc(-c2nonc2NC(=O)c2cccc(C(F)(F)F)c2)c1 [Compound 63, N-[4-(3-Aminophenyl)-1,2,5-oxadiazol-3-yl]-3-(trifluoromethyl)benzamide] |  | 1.201 |  |  |  | 21.2 µM |
| O=C(Nc1nonc1-c1ccc(Cl)cc1)c1cccc(C(F)(F)F)c1 [Compound 48, N-[4-(4-Chlorophenyl)-1,2,5-oxadiazol-3-yl]-3-(trifluoromethyl)benzamide] |  | 0.599 | 8.44 to 17.7 µM |  | 8.44 µM | 5.06 µM |
| Cc1cccc(C(=O)Nc2nonc2-c2ccc([N+](=O)[O-])cc2)c1 [Compound 38, 3-Methyl-N-[4-(4-nitrophenyl)-1,2,5-oxadiazol-3-yl]benzamide] | 68% |  | 0.99 µM |  |  | 3.47 µM |
| Cc1cccc(C(=O)Nc2nonc2-c2cccc([N+](=O)[O-])c2)c1 [Compound 42, 3-Methyl-N-[4-(3-nitrophenyl)-1,2,5-oxadiazol-3-yl]benzamide] | 87% | 0.464 | 11.5 µM | 158 °C |  | 5.32 µM |
| CCOc1cc(-c2nonc2NC(=O)c2cccc(C)c2)ccc1OC [Compound 51, N-[4-(3-Ethoxy-4-methoxyphenyl)-1,2,5-oxadiazol-3-yl]-3-methylbenzamide] | 66% | 1526 | 0.034 µM | 280 °C |  | 51.9 µM |
| COc1ccc(C(=O)Nc2nonc2-c2ccc([N+](=O)[O-])cc2)cc1Cl [Compound 53, 3-Chloro-4-methoxy-N-[4-(4-nitrophenyl)-1,2,5-oxadiazol-3-yl]benzamide] |  |  | 0.323 µM | 261 °C |  | 3.35 µM |
| Nc1ccc(-c2nonc2NC(=O)c2cccc(C(F)(F)F)c2)cc1 [Compound 58, N-[4-(4-Aminophenyl)-1,2,5-oxadiazol-3-yl]-3-(trifluoromethyl)benzamide] |  | 3.548 | 9.26 µM | 154 °C |  | 32.9 µM |
| O=C(Nc1nonc1-c1ccc([N+](=O)[O-])cc1)c1cccc(F)c1 [Compound 39, 3-Fluoro-N-[4-(4-nitrophenyl)-1,2,5-oxadiazol-3-yl]benzamide] | 43% | 0.809 | 5.33 µM |  |  | 4.31 µM |

Further lines, with some results ahead:

| inhibition at 10 min, 20 µM (CYP3A4) | S.I. = IC50 (Cyt.)/IC50 (P.f.NF54) (P. falciparum NF54) | IC50 (P. falciparum NF54; [2]) | melting point | IC50 (P. falciparum NF54; [3]) | SMILES | IC50 at 72 h [1] |
| --- | --- | --- | --- | --- | --- | --- |
| 52% | 86.47 | 0.275 µM | 260 °C |  | CCOc1ccc(-c2nonc2NC(=O)c2cccc(C)c2)cc1OC [Compound 52, N-[4-(4-Ethoxy-3-methoxyphenyl)-1,2,5-oxadiazol-3-yl]-3-methylbenzamide] | 23.8 µM |
|  | 0.932 | 5.92 µM | 248 °C |  | COc1ccc(C(=O)Nc2nonc2-c2cccc([N+](=O)[O-])c2)cc1Cl [Compound 54, 3-Chloro-4-methoxy-N-[4-(3-nitrophenyl)-1,2,5-oxadiazol-3-yl]benzamide] | 5.52 µM |
| 46% | 6.694 | 1.81 µM | 208 °C |  | O=C(Nc1nonc1-c1ccc([N+](=O)[O-])cc1)c1ccccc1 [Compound 37, N-[4-(4-Nitrophenyl)-1,2,5-oxadiazol-3-yl]benzamide] | 12.2 µM |
|  | 6.107 |  | 163 °C | 32 µM | Nc1cccc(-c2nonc2NC(=O)c2cccc(F)c2)c1 [Compound 62, N-[4-(3-Aminophenyl)-1,2,5-oxadiazol-3-yl]-3-fluorobenzamide] | 195 µM |
| 99% | 6.182 | 30.2 µM | 172 °C |  | Cc1cccc(C(=O)Nc2nonc2-c2cccc(N)c2)c1 [Compound 61, N-[4-(3-Aminophenyl)-1,2,5-oxadiazol-3-yl]-3-methylbenzamide] | 186 µM |
|  | 4.039 |  | 178 °C |  | Nc1cccc(-c2nonc2NC(=O)c2ccccc2)c1 [Compound 60, N-[4-(3-Aminophenyl)-1,2,5-oxadiazol-3-yl]benzamide] | 217 µM |
| 82% | 0.666 | 9.11 µM | 179 °C |  | O=C(Nc1nonc1-c1cccc([N+](=O)[O-])c1)c1ccccc1 [Compound 41, N-[4-(3-Nitrophenyl)-1,2,5-oxadiazol-3-yl]benzamide] | 6.07 µM |
| 79% | 0.104 | 26.7 µM | 174 °C |  | O=C(Nc1nonc1-c1cccc([N+](=O)[O-])c1)c1cccc(F)c1 [Compound 43, 3-Fluoro-N-[4-(3-nitrophenyl)-1,2,5-oxadiazol-3-yl]benzamide] | 2.77 µM |
| 84% | 4.328 |  |  |  | Cc1cccc(C(=O)Nc2nonc2-c2ccc(F)cc2)c1 [Compound 49, N-[4-(4-Fluorophenyl)-1,2,5-oxadiazol-3-yl]-3-methylbenzamide] | 35.1 µM |
|  | 15.70 | 6.83 µM | 159 °C |  | Cc1cccc(C(=O)Nc2nonc2-c2ccc(N)cc2)c1 [Compound 56, N-[4-(4-Aminophenyl)-1,2,5-oxadiazol-3-yl]-3-methylbenzamide] | 107 µM |
|  | 18.90 | 10.5 µM | 189 °C |  | Nc1ccc(-c2nonc2NC(=O)c2cccc(F)c2)cc1 [Compound 57, N-[4-(4-Aminophenyl)-1,2,5-oxadiazol-3-yl]-3-fluorobenzamide] | 198 µM |

Source: article PMC10572347, “Structure–Activity Relationships and Antiplasmodial Potencies of Novel 3,4-Disubstituted 1,2,5-Oxadiazoles” (International Journal of Molecular Sciences, 2023)
